Measurements as given in patent publication US10314823B2, “Substituted 1,2-dihydro-3H-pyrrolo[1,2-c]imidazol-3-one antibacterial compounds” (IDORSIA PHARMACEUTICALS LTD, priority 2015, dated 2019).
≈ marks a conversion by molar mass, not a printed value.

What was measured:
Experiment in all cases: Bacterial growth minimal inhibitory concentration (CLSI broth microdilution)
Type in all cases: cell-based
E. coli ATCC25922 = conditions: Escherichia coli, ATCC25922; quinolone-sensitive strain; cation-adjusted Mueller-Hinton Broth
Procedure: (§1) Minimal Inhibitory Concentrations (MICs; mg/L) were determined in cation-adjusted Mueller-Hinton Broth by a microdilution method following the description given in “Methods for Dilution Antimicrobial Susceptibility Tests for Bacteria that Grow Aerobically”, Approved standard, 7th ed., Clinical and Laboratory Standards Institute (CLSI) Document M7-A7, Wayne, Pa., USA (2006).
(§2) All Reference Example compounds were tested against several Gram-negative bacteria. K. pneumoniae A-651 is a multiply resistant strain (in particular quinolone-resistant), while E. coli ATCC25922 and P. aeruginosa ATCC27853 are quinolone-sensitive strains. The corresponding antibacterial test results are given in Table 1 hereafter (MICs in mg/L).

K. pneumoniae A-651 = conditions: Klebsiella pneumoniae, A651; multiply resistant strain (in particular quinolone-resistant); cation-adjusted Mueller-Hinton Broth
Procedure: as §1, §2

P. aeruginosa ATCC27853 = conditions: Pseudomonas aeruginosa, ATCC27853; quinolone-sensitive strain; cation-adjusted Mueller-Hinton Broth
Procedure: as §1, §2

SMILES	MIC (E. coli ATCC25922) [µg/mL]	MIC (K. pneumoniae A-651) [µg/mL]	MIC (P. aeruginosa ATCC27853) [µg/mL]
C[C@@](CCN1Cc2cc(C#Cc3ccc(CN4CC(CO)OC4=O)cc3)cn2C1=O)(C(=O)NO)S(C)(=O)=O (mixture of isomers) [Example 12, (2R)—N-hydroxy-4-(6-((4-((RS)-(5-(hydroxymethyl)-2-oxooxazolidin-3-yl)methyl)phenyl)ethynyl)-3-oxo-1H-pyrrolo[1,2-c]imidazol-2(3H)-yl)-2-methyl-2-(methylsulfonyl)butanamide]	1	2	4
COCCN(C)CC(O)c1ccc(C#Cc2cc3n(c2)C(=O)N(CC[C@](C)(C(=O)NO)S(C)(=O)=O)C3)cc1 (mixture of isomers) [Example 28, (2R)—N-hydroxy-4-(6-((RS)-(4-(1-hydroxy-2-((2-methoxyethyl)(methyl)amino)ethyl)phenyl)ethynyl)-3-oxo-1H-pyrrolo[1,2-c]imidazol-2(3H)-yl)-2-methyl-2-(methylsulfonyl)butanamide]	1	8	2
C[C@@](CCN1Cc2cc(C#CC#CC3(F)CCN(C4CC4)C3)cn2C1=O)(C(=O)NO)S(C)(=O)=O (mixture of isomers) [Example 76, (2R)-4-(6-(((3RS)-1-cyclopropyl-3-fluoropyrrolidin-3-yl)buta-1,3-diyn-1-yl)-3-oxo-1H-pyrrolo[1,2-c]imidazol-2(3H)-yl)-N-hydroxy-2-methyl-2-(methylsulfonyl)butanamide]	0.125	0.25	2
C[C@@](CCN1Cc2cc(C#CC#CC3(F)CCN(CCO)C3)cn2C1=O)(C(=O)NO)S(C)(=O)=O (mixture of isomers) [Example 77, (2R)-4-(6-(((3RS)-3-fluoro-1-(2-hydroxyethyl)pyrrolidin-3-yl)buta-1,3-diyn-1-yl)-3-oxo-1H-pyrrolo[1,2-c]imidazol-2(3H)-yl)-N-hydroxy-2-methyl-2-(methylsulfonyl)butanamide]	0.5	1	1
C[C@@](CCN1Cc2cc(C#CC#CC3(F)CCNC3)cn2C1=O)(C(=O)NO)S(C)(=O)=O (mixture of isomers) [Example 78, (2R)-4-(6-(((3RS)-3-fluoropyrrolidin-3-yl)buta-1,3-diyn-1-yl)-3-oxo-1H-pyrrolo[1,2-c]imidazol-2(3H)-yl)-N-hydroxy-2-methyl-2-(methylsulfonyl)butanamide]	1	1	1
CN1CCC(C)(C#CC#Cc2cc3n(c2)C(=O)N(CC[C@](C)(C(=O)NO)S(C)(=O)=O)C3)C1 (mixture of isomers) [Example 82, (2R)-4-(6-(((3RS)-1,3-dimethylpyrrolidin-3-yl)buta-1,3-diyn-1-yl)-3-oxo-1H-pyrrolo[1,2-c]imidazol-2(3H)-yl)-N-hydroxy-2-methyl-2-(methylsulfonyl)butanamide]	2	2	4
CN1CCC(C#CC#Cc2cc3n(c2)C(=O)N(CC[C@](C)(C(=O)NO)S(C)(=O)=O)C3)C1 (mixture of isomers) [Example 83, (2R)—N-hydroxy-2-methyl-4-(6-(((3RS)-1-methylpyrrolidin-3-yl)buta-1,3-diyn-1-yl)-3-oxo-1H-pyrrolo[1,2-c]imidazol-2(3H)-yl)-2-(methylsulfonyl)butanamide]	2	1	1
C[C@@](CCN1Cc2cc(C#Cc3ccc(CN4CC[C@H](N)[C@@H](F)C4)cc3)cn2C1=O)(C(=O)NO)S(C)(=O)=O (relative stereo) [Example 13, (2R)-4-(6-((4-(((3S*,4S*)-4-amino-3-fluoropiperidin-1-yl)methyl)phenyl)ethynyl)-3-oxo-1H-pyrrolo[1,2-c]imidazol-2(3H)-yl)-N-hydroxy-2-methyl-2-(methylsulfonyl)butanamide]	1 (≈ 1.83 µM)	1 (≈ 1.83 µM)	1 (≈ 1.83 µM)
C[C@@](CCN1Cc2cc(C#Cc3ccc(CN4CC[C@H](O)[C@@H](F)C4)cc3)cn2C1=O)(C(=O)NO)S(C)(=O)=O (relative stereo) [Example 36, (2R)-4-(6-((4-(((3S*,4S*)-3-fluoro-4-hydroxypiperidin-1-yl)methyl)phenyl)ethynyl)-3-oxo-1H-pyrrolo[1,2-c]imidazol-2(3H)-yl)-N-hydroxy-2-methyl-2-(methylsulfonyl)butanamide]	0.25 (≈ 0.457 µM)	0.5 (≈ 0.915 µM)	1 (≈ 1.83 µM)
C[C@@](CCN1Cc2cc(C#Cc3ccc(CN4CC[C@H](O)[C@H](F)C4)cc3)cn2C1=O)(C(=O)NO)S(C)(=O)=O (relative stereo) [Example 42, (2R)-4-(6-((4-(((3R*,4S*)-3-fluoro-4-hydroxypiperidin-1-yl)methyl)phenyl)ethynyl)-3-oxo-1H-pyrrolo[1,2-c]imidazol-2(3H)-yl)-N-hydroxy-2-methyl-2-(methylsulfonyl)butanamide]	0.5 (≈ 0.915 µM)	1 (≈ 1.83 µM)	2 (≈ 3.66 µM)
CN1C[C@H](O)[C@@H](C#CC#Cc2cc3n(c2)C(=O)N(CC[C@](C)(C(=O)NO)S(C)(=O)=O)C3)C1 (relative stereo) [Example 99, (2R)—N-hydroxy-4-(6-(((3S*,4R*)-4-hydroxy-1-methylpyrrolidin-3-yl)buta-1,3-diyn-1-yl)-3-oxo-1H-pyrrolo[1,2-c]imidazol-2(3H)-yl)-2-methyl-2-(methylsulfonyl)butanamide]	2 (≈ 4.32 µM)	2 (≈ 4.32 µM)	2 (≈ 4.32 µM)
C[C@@](CCN1Cc2cc(C#Cc3ccc([C@@H](O)CN4CCOCC4)cc3)cn2C1=O)(C(=O)NO)S(C)(=O)=O (single isomer, unassigned) [Example 1]	1 (≈ 1.84 µM)	2 (≈ 3.67 µM)	2 (≈ 3.67 µM)
C[C@@](CCN1Cc2cc(C#Cc3ccc([C@H](O)CN4CCOCC4)cc3)cn2C1=O)(C(=O)NO)S(C)(=O)=O (single isomer, unassigned) [Example 2]	1 (≈ 1.84 µM)	1 (≈ 1.84 µM)	1 (≈ 1.84 µM)
CN1CC[C@@](F)(C#CC#Cc2cc3n(c2)C(=O)N(CC[C@](C)(C(=O)NO)S(C)(=O)=O)C3)C1.O=C(O)C(F)(F)F (single isomer, unassigned) [Example 71]	0.25	0.5	2
CN1CC[C@](F)(C#CC#Cc2cc3n(c2)C(=O)N(CC[C@](C)(C(=O)NO)S(C)(=O)=O)C3)C1.O=C(O)C(F)(F)F (single isomer, unassigned) [Example 72]	0.5	0.5	2
CN1C[C@@H](C#CC#Cc2cc3n(c2)C(=O)N(CC[C@](C)(C(=O)NO)S(C)(=O)=O)C3)C[C@@H]1CO (single isomer, unassigned) [Example 94]	1 (≈ 2.1 µM)	1 (≈ 2.1 µM)	0.5 (≈ 1.05 µM)
C[C@@](CCN1Cc2cc(C#Cc3ccc(CN4CC5(COC5)C4)cc3)cn2C1=O)(C(=O)NO)S(C)(=O)=O [Example 3, (2R)-4-(6-((4-((2-oxa-6-azaspiro[3.3]heptan-6-yl)methyl)phenyl)ethynyl)-3-oxo-1H-pyrrolo[1,2-c]imidazol-2(3H)-yl)-N-hydroxy-2-methyl-2-(methylsulfonyl)butanamide]	0.25 (≈ 0.475 µM)	1 (≈ 1.9 µM)	1 (≈ 1.9 µM)
C[C@@](CCN1Cc2cc(C#Cc3ccc(CN4CC5C(N)C5C4)cc3)cn2C1=O)(C(=O)NO)S(C)(=O)=O (stereo partly drawn) [Example 4, (2R)-4-(6-((4-((6-amino-3-azabicyclo[3.1.0]hexan-3-yl)methyl)phenyl)ethynyl)-3-oxo-1H-pyrrolo[1,2-c]imidazol-2(3H)-yl)-N-hydroxy-2-methyl-2-(methylsulfonyl)butanamide]	2 (≈ 3.8 µM)	2 (≈ 3.8 µM)	2 (≈ 3.8 µM)
C[C@@](CCN1Cc2cc(C#Cc3ccc(COC(=O)N4CCC(O)CC4)cc3)cn2C1=O)(C(=O)NO)S(C)(=O)=O [Example 5, (3R)-4-((2-(4-(hydroxyamino)-3-methyl-3-(methylsulfonyl)-4-oxobutyl)-3-oxo-2,3-dihydro-1H-pyrrolo[1,2-c]imidazol-6-yl)ethynyl)benzyl 4-hydroxypiperidine-1-carboxylate]	0.25 (≈ 0.437 µM)	1 (≈ 1.75 µM)	2 (≈ 3.49 µM)
CC(=O)N1CC(O)(c2ccc(C#Cc3cc4n(c3)C(=O)N(CC[C@](C)(C(=O)NO)S(C)(=O)=O)C4)cc2)C1 [Example 6, (2R)-4-(6-((4-(1-acetyl-3-hydroxyazetidin-3-yl)phenyl)ethynyl)-3-oxo-1H-pyrrolo[1,2-c]imidazol-2(3H)-yl)-N-hydroxy-2-methyl-2-(methylsulfonyl)butanamide]	2 (≈ 3.78 µM)	4 (≈ 7.57 µM)	1 (≈ 1.89 µM)
C[C@@](CCN1Cc2cc(C#CC#C[C@@H]3C[C@H]3[C@H](O)CO)cn2C1=O)(C(=O)NO)S(C)(=O)=O [Example 7, (2R)-4-(6-(((1R,2R)-2-((S)-1,2-dihydroxyethyl)cyclopropyl)buta-1,3-diyn-1-yl)-3-oxo-1H-pyrrolo[1,2-c]imidazol-2(3H)-yl)-N-hydroxy-2-methyl-2-(methylsulfonyl)butanamide]	0.5 (≈ 1.08 µM)	2 (≈ 4.31 µM)	0.5 (≈ 1.08 µM)
C[C@@](CCN1Cc2cc(C#CC#CCOC(=O)N3CCC(O)CC3)cn2C1=O)(C(=O)NO)S(C)(=O)=O [Example 8, (3R)-5-(2-(4-(hydroxyamino)-3-methyl-3-(methylsulfonyl)-4-oxobutyl)-3-oxo-2,3-dihydro-1H-pyrrolo[1,2-c]imidazol-6-yl)penta-2,4-diyn-1-yl 4-hydroxypiperidine-1-carboxylate]	1 (≈ 1.92 µM)	2 (≈ 3.84 µM)	2 (≈ 3.84 µM)
